Data as given in ChEMBL document CHEMBL1649232 (Antimicrob Agents Chemother, 2009).

Experiments:
[1] = Drug level in sputum of healthy human between 6 to 24 hrs postdosing; format: ADME, tissue-based; conditions: in vivo
[2] = Cmax in healthy human at […] parenteral dose; format: ADME, organism-based; conditions: in vivo

Compound	Drug uptake [1] [ng/mL]	Cmax [2] [ng/mL]
CC(=O)N[C@H]1[C@H]([C@H](O)[C@H](O)CO)OC(C(=O)O)=C[C@@H]1N=C(N)N [ZANAMIVIR]	47	–
CCC(CC)[C@H](NC(C)=O)[C@@H]1[C@H](O)[C@@H](C(=O)O)C[C@H]1NC(=N)N [PERAMIVIR ANHYDROUS]	–	10000
